According to the NIST ThermoML archive (doi:10.1016/j.jct.2008.03.015):
± gives the expanded uncertainty stated by the source.

Settings: Crystal 1

| Normal melting temperature [°C] | SMILES |
| --- | --- |
| 24.07 ± 0.62 | CCCCCCCCCCCCO [dodecan-1-ol] |
| 58.38 ± 0.62 | CCCCCCCCCCCCCCCCCCO [1-octadecanol] |
| 49.76 ± 0.62 | CCCCCCCCCCCCCCCCO [1-hexadecanol] |
